# Data taken from ChEMBL document CHEMBL6103589, “Synthesis and evaluation of novel ebselen derivatives as urease inhibitors for combating Helicobacter pylori infections” (Eur J Med Chem, 2025).
# Activity calls are given as the source filed them. The rule behind the calls is not given here.
# Tests used:
# [1] = Acute toxicity in BALB/c mouse assessed as change in daily behaviour at 1 g/Kg, po single dose administered for 7 days; assay type: organism-based; details: in vivo, 1000 mg/kg, 168 h, time 7 day
# Helicobacter pylori [2] = test: (§1) Protection against Helicobacter pylori ATCC 43504 infected (MOI 300:1) in human GES1 cell injury model assessed as late apoptotic cells at 50 uM pre-treated for 2 hrs followed by bacterial infection measured after 6 hrs by Annexin/V-FITC staining based flow cytometry analysis (reference value: 11.95%); assay type: functional; details: time 8 hrs
# Helicobacter pylori [3] = test: as §1, with “100:1)” for “300:1)”, “4.16%)” for “11.95%)”; assay type: functional; details: time 8 hrs
# Helicobacter pylori [4] = test: Protection against Helicobacter pylori ATCC 43504 infected (MOI 50:1) in human GES1 cell injury model assessed as late apoptotic cells at 25 uM pre-treated for 2 hrs measured after 6 hrs by Annexin/V-FITC staining based flow cytometry analysis (reference value: 2.85%); assay type: functional; details: time 8 hrs
# [5] = Acute toxicity in BALB/c mouse assessed as pathological abnormality in spleen at 1 g/Kg, po single dose administered for 7 days by HE staining based analysis; assay type: organism-based; details: in vivo, 1000 mg/kg, 168 h, time 7 day
# Helicobacter pylori [6] = test: Protection against Helicobacter pylori ATCC 43504 infected (MOI 300:1) in human GES1 cell injury model assessed as necrotic cells at 50 uM pre-treated for 2 hrs followed by bacterial infection measured after 6 hrs by Annexin/V-FITC staining based flow cytometry analysis (reference value: 6.05%); assay type: functional; details: time 8 hrs
# Helicobacter pylori [7] = test: Protection against Helicobacter pylori ATCC 43504 infected (MOI 25:1) in human GES1 cell injury model assessed as viable cells at 50 uM pre-treated for 2 hrs followed by bacterial infection measured after 6 hrs by Annexin/V-FITC staining based flow cytometry analysis (reference value: 89.14%); assay type: functional; details: time 8 hrs
# Helicobacter pylori [8] = test: as §1, with “100:1)” for “300:1)”, “early” for “late”, “24.66 %)” for “11.95%)”; assay type: functional; details: time 8 hrs
# Helicobacter pylori [9] = test: as §1, with “(MOI 200:1)” for “(MOI 300:1)”, “at 25” for “at 50”, “value: 6.28%)” for “value: 11.95%)”; assay type: functional; details: time 8 hrs
# Helicobacter pylori [10] = test: In vivo protection against Helicobacter pylori ATCC 43504 infected in BALB/c mouse gastric mucosa model assessed as appearance of intact sub-mucosa at high dose administered once a day for 2 weeks by HE staining based analysis; assay type: functional, organism-based
# GES1 [11] = test: Induction of DNA damage in human GES1 cells infected (25 to 400:1 MOI) with Helicobacter pylori ATCC 43504 assessed as increase in gammaH2AX levels at 25 to 50 uM by SP8 laser confocal microscopic analysis; assay type: functional, cell-based; details: dose 25-50 µM
# Helicobacter pylori [12] = test: as §1, with “(MOI 200:1)” for “(MOI 300:1)”, “as early” for “as late”, “at 25” for “at 50”, “value: 31.93 %)” for “value: 11.95%)”; assay type: functional; details: time 8 hrs
# Helicobacter pylori [13] = test: Protection against Helicobacter pylori ATCC 43504 infected (MOI 100:1) in human GES1 cell injury model assessed as necrotic cells at 50 uM pre-treated for 2 hrs followed by bacterial infection measured after 6 hrs by Annexin/V-FITC staining based flow cytometry analysis (reference value: 2.82%); assay type: functional; details: time 8 hrs
# Helicobacter pylori [14] = test: as §1, with “(MOI 400:1)” for “(MOI 300:1)”, “as early” for “as late”, “at 25” for “at 50”, “value: 42.41 %)” for “value: 11.95%)”; assay type: functional; details: time 8 hrs
# Helicobacter pylori [15] = test: as §1, with “400:1)” for “300:1)”, “early” for “late”, “42.41 %)” for “11.95%)”; assay type: functional; details: time 8 hrs
# Helicobacter pylori [16] = test: (§2) Protection against Helicobacter pylori ATCC 43504 infected (MOI 25:1) in human GES1 cell injury model assessed as necrotic cells at 25 uM pre-treated for 2 hrs followed by bacterial infection measured after 6 hrs by Annexin/V-FITC staining based flow cytometry analysis (reference value: 0.66%); assay type: functional; details: time 8 hrs
# [17] = Acute toxicity in BALB/c mouse assessed as pathological abnormality in heart at 1 g/Kg, po single dose administered for 7 days by HE staining based analysis; assay type: organism-based; details: in vivo, 1000 mg/kg, 168 h, time 7 day
# GES1 [18] = test: Induction of ROS generation in human GES1 cells infected (25 to 400:1 MOI) with Helicobacter pylori ATCC 43504 assessed as decrease in fluorescence intensity at 25 to 50 uM by DCFH-DA based Immunofluorescence analysis; assay type: functional, cell-based; details: dose 25-50 µM
# Helicobacter pylori [19] = test: In vivo protection against Helicobacter pylori ATCC 43504 infected in BALB/c mouse gastric mucosa model assessed as appearance of intact epithelium at high dose administered once a day for 2 weeks by HE staining based analysis; assay type: functional, organism-based
# Helicobacter pylori [20] = test: In vivo protection against Helicobacter pylori ATCC 43504 infected in BALB/c mouse gastric mucosa model assessed as effect on bleeding at high dose administered once a day for 2 weeks by HE staining based analysis; assay type: functional, organism-based
# Helicobacter pylori [21] = test: as §1, with “200:1)” for “300:1)”, “early” for “late”, “31.93 %)” for “11.95%)”; assay type: functional; details: time 8 hrs
# Helicobacter pylori [22] = test: as §1, with “early” for “late”, “34.57 %)” for “11.95%)”; assay type: functional; details: time 8 hrs
# Helicobacter pylori [23] = test: In vivo protection against Helicobacter pylori ATCC 43504 infected in BALB/c mouse gastric mucosa model assessed as appearance of intact lamina propria at high dose administered once a day for 2 weeks by HE staining based analysis; assay type: functional, organism-based
# Helicobacter pylori [24] = test: Protection against Helicobacter pylori ATCC 43504 infected (MOI 200:1) in human GES1 cell injury model assessed as viable cells at 50 uM pre-treated for 2 hrs followed by bacterial infection measured after 6 hrs by Annexin/V-FITC staining based flow cytometry analysis (reference value: 57.87%); assay type: functional; details: time 8 hrs
# Helicobacter pylori [25] = test: as §2, with “early apoptotic” for “necrotic”, “9.89%)” for “0.66%)”; assay type: functional; details: time 8 hrs
# GES1 [26] = test: Cytotoxicity against human GES1 cells at upto 75 uM by MTT assay; assay type: toxicity, cell-based; details: ges1, 75 µM
# Helicobacter pylori [27] = test: Protection against Helicobacter pylori ATCC 43504 infected (MOI 25:1) in human GES1 cell injury model assessed as late apoptotic cells at 50 uM pre-treated for 2 hrs measured after 6 hrs by Annexin/V-FITC staining based flow cytometry analysis (reference value: 0.31%); assay type: functional; details: time 8 hrs
# [28] = Acute toxicity in BALB/c mouse assessed as change in stool consistency at 1 g/Kg, po single dose administered for 7 days; assay type: organism-based; details: in vivo, 1000 mg/kg, 168 h, time 7 day
# Helicobacter pylori [29] = test: In vivo protection against Helicobacter pylori ATCC 43504 infected in BALB/c mouse gastric mucosa model assessed as effect on hyperplasia at low dose administered once a day for 2 weeks by HE staining based analysis; assay type: functional, organism-based
# Helicobacter pylori [30] = test: In vivo protection against Helicobacter pylori ATCC 43504 infected in BALB/c mouse gastric mucosa model assessed as appearance of intact tissue structure at 25 mg/kg administered once a day for 2 weeks by HE staining based analysis; assay type: functional, organism-based
# Helicobacter pylori [31] = test: as §2, with “400:1)” for “25:1)”, “reduction in cell apoptosis rate” for “necrotic cells”, “56.03%)” for “0.66%)”; assay type: functional; design: scale not given: the % may be the effect or the level left; details: time 8 hrs
compound,measurement,setting,value
O=C(Oc1n[se]c2ccccc12)c1cccc(F)c1,Activity,[1],Non-toxic
same,Activity,Helicobacter pylori [2],2.53%
same,Activity,Helicobacter pylori [3],0.23%
same,Activity,Helicobacter pylori [4],0.05%
same,Activity,[5],Non-toxic
same,Activity,Helicobacter pylori [6],2.01%
same,Activity,Helicobacter pylori [7],99.06%
same,Activity,Helicobacter pylori [8],2.79%
same,Activity,Helicobacter pylori [9],0.02%
same,Activity,Helicobacter pylori [10],Active
same,Activity,GES1 [11],Active
same,Activity,Helicobacter pylori [12],12.06%
same,Activity,Helicobacter pylori [13],0.16%
same,Activity,Helicobacter pylori [14],17.23%
same,Activity,Helicobacter pylori [15],7.61%
same,Activity,Helicobacter pylori [16],0.02%
same,Activity,[17],Non-toxic
same,Activity,GES1 [18],Active
same,Activity,Helicobacter pylori [19],Active
same,Activity,Helicobacter pylori [20],inactive
same,Activity,Helicobacter pylori [21],4.38%
same,Activity,Helicobacter pylori [22],3.14%
same,Activity,Helicobacter pylori [23],Active
same,Activity,Helicobacter pylori [24],94.61%
same,Activity,Helicobacter pylori [25],1.51%
same,Activity,GES1 [26],Non-toxic
same,Activity,Helicobacter pylori [27],0%
same,Activity,[28],Non-toxic
same,Activity,Helicobacter pylori [29],inactive
same,Activity,Helicobacter pylori [30],Active
same,Activity,Helicobacter pylori [31],38.48%
